# Results published in PubChem BioAssay AID1963960 (Molecular Pharmacology Branch, DTP, NCI, 2024).
# Several values for one entry are separate records, joined by “and”; a condition that tells them apart may be missing. Equal entries are not always repeated.
# Test system: MDA-MB-468 spheroids with HUVEC/MSC, viability
# Assay: Anticancer human tumor MDA-MB-468 cell line growth inhibition [PI3K];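 also: spheroids exposed to agents for seven days before readout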;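 as to viability, T/C: 100% = DMSO vehicle control viability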
# Conditions: for viability, T/C: stronger effect = lower value
# Method in brief: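 High-throughput combination screen: PI3K inhibitors crossed with targeted small molecules on complex spheroids of tumor cells, HUVEC and MSCs at 37 degrees C, 5% CO2. Top concentration was at or near clinical Cmax (otherwise 10 microM), with half-log decrements.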
# [1] = curve of first compound, second compound 0.00316 µM
# [2] = curve of first compound, second compound 0.01 µM
# [3] = curve of first compound, second compound 0.0316 µM
# [4] = curve of first compound, second compound 0.1 µM
# [5] = curve of first compound, second compound 0.316 µM
# [6] = curve of first compound, second compound 1 µM
# [7] = second compound 0.00316 µM, first compound 0.0316 µM
# [8] = second compound 0.00316 µM, first compound 0.1 µM
# [9] = second compound 0.00316 µM, first compound 0.316 µM
# [10] = second compound 0.00316 µM, first compound 1 µM
# [11] = second compound 0.00316 µM, first compound 3.16 µM
# [12] = second compound 0.00316 µM, first compound 10 µM
# [13] = second compound 0.01 µM, first compound 0.0316 µM
# [14] = second compound 0.01 µM, first compound 0.1 µM
# [15] = second compound 0.01 µM, first compound 0.316 µM
# [16] = second compound 0.01 µM, first compound 1 µM
# [17] = second compound 0.01 µM, first compound 3.16 µM
# [18] = second compound 0.01 µM, first compound 10 µM
# [19] = second compound 0.0316 µM, first compound 0.0316 µM
# [20] = second compound 0.0316 µM, first compound 0.1 µM
# [21] = second compound 0.0316 µM, first compound 0.316 µM
# [22] = second compound 0.0316 µM, first compound 1 µM
# [23] = second compound 0.0316 µM, first compound 3.16 µM
# [24] = second compound 0.0316 µM, first compound 10 µM
# [25] = second compound 0.1 µM, first compound 0.0316 µM
# [26] = second compound 0.1 µM, first compound 0.1 µM
# [27] = second compound 0.1 µM, first compound 0.316 µM
# [28] = second compound 0.1 µM, first compound 1 µM
# [29] = second compound 0.1 µM, first compound 3.16 µM
# [30] = second compound 0.1 µM, first compound 10 µM
# [31] = second compound 0.316 µM, first compound 0.0316 µM
# [32] = second compound 0.316 µM, first compound 0.1 µM
# [33] = second compound 0.316 µM, first compound 0.316 µM
# [34] = second compound 0.316 µM, first compound 1 µM
# [35] = second compound 0.316 µM, first compound 3.16 µM
# [36] = second compound 0.316 µM, first compound 10 µM
# [37] = second compound 1 µM, first compound 0.0316 µM
# [38] = second compound 1 µM, first compound 0.1 µM
# [39] = second compound 1 µM, first compound 0.316 µM
# [40] = second compound 1 µM, first compound 1 µM
# [41] = second compound 1 µM, first compound 3.16 µM
# [42] = second compound 1 µM, first compound 10 µM
# [43] = curve of first compound, second compound 3.16 µM
# [44] = curve of first compound, second compound 10 µM
# [45] = second compound 3.16 µM, first compound 0.0316 µM
# [46] = second compound 3.16 µM, first compound 0.1 µM
# [47] = second compound 3.16 µM, first compound 0.316 µM
# [48] = second compound 3.16 µM, first compound 1 µM
# [49] = second compound 3.16 µM, first compound 3.16 µM
# [50] = second compound 3.16 µM, first compound 10 µM
# [51] = second compound 10 µM, first compound 0.0316 µM
# [52] = second compound 10 µM, first compound 0.1 µM
# [53] = second compound 10 µM, first compound 0.316 µM
# [54] = second compound 10 µM, first compound 1 µM
# [55] = second compound 10 µM, first compound 3.16 µM
# [56] = second compound 10 µM, first compound 10 µM
smiles,measurement,setting,value
CC1(C)CCC(Nc2ncc(C(F)(F)F)c(-c3c[nH]c4c(P(C)(C)=O)c(C#N)ccc34)n2)CN1 (stereo not drawn) + CC(Nc1ccc2c(c1)OCCn1cc(N3C(=O)OCC3C(F)F)nc1-2)C(N)=O,IC50,[1],< 31.6 nM
same,IC50,[2],< 31.6 nM
same,IC50,[3],< 31.6 nM
same,IC50,[4],< 31.6 nM
same,IC50,[5],< 31.6 nM
same,IC50,[6],< 31.6 nM
same,"viability, T/C",[7],9.78%
same,"viability, T/C",[8],9.47%
same,"viability, T/C",[9],9.65%
same,"viability, T/C",[10],8.55%
same,"viability, T/C",[11],8.68%
same,"viability, T/C",[12],1.56%
same,"viability, T/C",[13],10.6%
same,"viability, T/C",[14],11.4%
same,"viability, T/C",[15],9.42%
same,"viability, T/C",[16],8.7%
same,"viability, T/C",[17],7.16%
same,"viability, T/C",[18],2.11%
same,"viability, T/C",[19],11.1%
same,"viability, T/C",[20],9.59%
same,"viability, T/C",[21],7.86%
same,"viability, T/C",[22],8.01%
same,"viability, T/C",[23],7.19%
same,"viability, T/C",[24],1.24%
same,"viability, T/C",[25],11.6%
same,"viability, T/C",[26],10%
same,"viability, T/C",[27],9.28%
same,"viability, T/C",[28],8.9%
same,"viability, T/C",[29],7.73%
same,"viability, T/C",[30],1.12%
same,"viability, T/C",[31],11.5%
same,"viability, T/C",[32],9.36%
same,"viability, T/C",[33],8.28%
same,"viability, T/C",[34],8.77%
same,"viability, T/C",[35],6.8%
same,"viability, T/C",[36],1.12%
same,"viability, T/C",[37],11.7%
same,"viability, T/C",[38],9%
same,"viability, T/C",[39],8.85%
same,"viability, T/C",[40],10.9%
same,"viability, T/C",[41],5.99%
same,"viability, T/C",[42],1.09%
CCCS(=O)(=O)Nc1ccc(F)c(C(=O)c2c[nH]c3ncc(-c4ccc(Cl)cc4)cc23)c1F + Cc1nc(NC(=O)N2CCCC2C(N)=O)sc1-c1ccnc(C(C)(C)C(F)(F)F)c1,IC50,[3],5120 nM
same,IC50,[4],3970 nM
same,IC50,[5],3550 nM
same,IC50,[6],1440 nM
same,IC50,[43],1780 nM
same,IC50,[44],< 31.6 nM
same,"viability, T/C",[19],89.5%
same,"viability, T/C",[20],95.7%
same,"viability, T/C",[21],91.2%
same,"viability, T/C",[22],104%
same,"viability, T/C",[23],76.8%
same,"viability, T/C",[24],12.9%
same,"viability, T/C",[25],92.8%
same,"viability, T/C",[26],97.5%
same,"viability, T/C",[27],93.6%
same,"viability, T/C",[28],97%
same,"viability, T/C",[29],59.5%
same,"viability, T/C",[30],11.6%
same,"viability, T/C",[31],103%
same,"viability, T/C",[32],86.5%
same,"viability, T/C",[33],80.5%
same,"viability, T/C",[34],105%
same,"viability, T/C",[35],54.6%
same,"viability, T/C",[36],9.77%
same,"viability, T/C",[37],113%
same,"viability, T/C",[38],76.1%
same,"viability, T/C",[39],63.9%
same,"viability, T/C",[40],70.8%
same,"viability, T/C",[41],49.3%
same,"viability, T/C",[42],9.67%
same,"viability, T/C",[45],72.3%
same,"viability, T/C",[46],61%
same,"viability, T/C",[47],67.9%
same,"viability, T/C",[48],62.9%
same,"viability, T/C",[49],36.9%
same,"viability, T/C",[50],10%
same,"viability, T/C",[51],43%
same,"viability, T/C",[52],28.2%
same,"viability, T/C",[53],36.4%
same,"viability, T/C",[54],31.1%
same,"viability, T/C",[55],26.2%
same,"viability, T/C",[56],7.64%
CCN1CCN(Cc2ccc(Nc3ncc(F)c(-c4cc(F)c5nc(C)n(C(C)C)c5c4)n3)nc2)CC1,"viability, T/C",compound 0.00316 µM,98.5% and 101% (2×) and 106%
same,"viability, T/C",compound 0.0316 µM,99.3% [middle of 4 runs]
same,"viability, T/C",compound 0.316 µM,108% [middle of 4 runs]
same,"viability, T/C",compound 1 µM,66.1% [middle of 4 runs]
same,IC50,curve of compound,> 1000 nM
CC(C)NCC(C(=O)N1CCN(c2ncnc3c2C(C)CC3O)CC1)c1ccc(Cl)cc1 (stereo not drawn) + CC(Nc1ccc2c(c1)OCCn1cc(N3C(=O)OCC3C(F)F)nc1-2)C(N)=O,IC50,[1],1290 nM
same,IC50,[2],759 nM
same,IC50,[3],749 nM
same,IC50,[4],576 nM
same,IC50,[5],678 nM
same,IC50,[6],311 nM
same,"viability, T/C",[7],90.2%
same,"viability, T/C",[8],91.3%
same,"viability, T/C",[9],72.5%
same,"viability, T/C",[10],60.1%
same,"viability, T/C",[11],27.5%
same,"viability, T/C",[12],25.5%
same,"viability, T/C",[13],113%
same,"viability, T/C",[14],88%
same,"viability, T/C",[15],67.7%
same,"viability, T/C",[16],45.8%
same,"viability, T/C",[17],27.8%
same,"viability, T/C",[18],23.7%
same,"viability, T/C",[19],88.1%
same,"viability, T/C",[20],85.5%
same,"viability, T/C",[21],65.6%
same,"viability, T/C",[22],45.1%
same,"viability, T/C",[23],29.5%
same,"viability, T/C",[24],24.4%
same,"viability, T/C",[25],104%
same,"viability, T/C",[26],83.6%
same,"viability, T/C",[27],57.2%
same,"viability, T/C",[28],45.1%
same,"viability, T/C",[29],24.3%
same,"viability, T/C",[30],21.4%
same,"viability, T/C",[31],89.8%
same,"viability, T/C",[32],81.3%
same,"viability, T/C",[33],65.7%
same,"viability, T/C",[34],42.5%
same,"viability, T/C",[35],26.4%
same,"viability, T/C",[36],22%
same,"viability, T/C",[37],82.5%
same,"viability, T/C",[38],65.3%
same,"viability, T/C",[39],50.1%
same,"viability, T/C",[40],37%
same,"viability, T/C",[41],26.2%
same,"viability, T/C",[42],21.2%
CC(C)NCC(C(=O)N1CCN(c2ncnc3c2C(C)CC3O)CC1)c1ccc(Cl)cc1 (stereo not drawn) + CC(Nc1ncnc2nc[nH]c12)c1cc2cccc(Cl)c2c(=O)n1-c1ccccc1,IC50,[3],1170 nM
same,IC50,[4],1010 nM
same,IC50,[5],1220 nM
same,IC50,[6],654 nM
same,IC50,[43],260 nM
same,IC50,[44],< 31.6 nM
same,"viability, T/C",[19],97.6%
same,"viability, T/C",[20],86.2%
same,"viability, T/C",[21],76.4%
same,"viability, T/C",[22],50.4%
same,"viability, T/C",[23],36%
same,"viability, T/C",[24],25.7%
same,"viability, T/C",[25],78.1%
same,"viability, T/C",[26],87.9%
same,"viability, T/C",[27],77.5%
same,"viability, T/C",[28],48.3%
same,"viability, T/C",[29],38.5%
same,"viability, T/C",[30],25.8%
same,"viability, T/C",[31],73.1%
same,"viability, T/C",[32],80.2%
same,"viability, T/C",[33],76.9%
same,"viability, T/C",[34],51.2%
same,"viability, T/C",[35],38.5%
same,"viability, T/C",[36],27.4%
same,"viability, T/C",[37],72.2%
same,"viability, T/C",[38],64.9%
same,"viability, T/C",[39],59.1%
same,"viability, T/C",[40],46.4%
same,"viability, T/C",[41],29.9%
same,"viability, T/C",[42],27%
same,"viability, T/C",[45],57.5%
same,"viability, T/C",[46],57.7%
same,"viability, T/C",[47],47%
same,"viability, T/C",[48],40.8%
same,"viability, T/C",[49],32.6%
same,"viability, T/C",[50],25.6%
same,"viability, T/C",[51],46.4%
same,"viability, T/C",[52],41.2%
same,"viability, T/C",[53],42.2%
same,"viability, T/C",[54],34.7%
same,"viability, T/C",[55],26.4%
same,"viability, T/C",[56],21.4%
